Measured values as given in ChEMBL document CHEMBL4837249, “Discovery of Potent Antiallergic Agents Based on an o-Aminopyridinyl Alkynyl Scaffold” (J Med Chem, 2021).

Experiments:
[1] = molecular target: T1, Tyrosine-protein kinase Tec (Homo sapiens) (UniProt P42680); assay: Inhibition of human recombinant Tec (174 to end) at 5 nM by radiometric scintillation counting analysis relative to control
T1 sequence (whole entry): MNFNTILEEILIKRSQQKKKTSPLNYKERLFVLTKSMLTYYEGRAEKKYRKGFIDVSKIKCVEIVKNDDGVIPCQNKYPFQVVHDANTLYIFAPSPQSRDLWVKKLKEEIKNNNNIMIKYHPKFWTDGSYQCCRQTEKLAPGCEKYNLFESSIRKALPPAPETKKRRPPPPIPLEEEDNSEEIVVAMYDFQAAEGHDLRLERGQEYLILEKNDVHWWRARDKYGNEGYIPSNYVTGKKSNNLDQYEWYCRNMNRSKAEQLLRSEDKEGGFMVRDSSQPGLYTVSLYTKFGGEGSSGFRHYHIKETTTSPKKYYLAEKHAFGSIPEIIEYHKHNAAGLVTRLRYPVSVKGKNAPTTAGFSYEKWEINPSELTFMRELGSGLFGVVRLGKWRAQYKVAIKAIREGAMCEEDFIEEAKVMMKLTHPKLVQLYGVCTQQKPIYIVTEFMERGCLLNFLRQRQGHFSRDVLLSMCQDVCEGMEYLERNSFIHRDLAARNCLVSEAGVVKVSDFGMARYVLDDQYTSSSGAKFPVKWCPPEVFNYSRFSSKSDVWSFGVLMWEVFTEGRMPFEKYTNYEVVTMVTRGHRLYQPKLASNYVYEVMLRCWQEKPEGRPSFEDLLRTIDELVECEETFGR

[2] = molecular target: T1, Tyrosine-protein kinase Tec (Homo sapiens); assay: Inhibition of human recombinant Tec (174 to end) at 50 nM by radiometric scintillation counting analysis relative to control
[3] = molecular target: T2, Cytoplasmic tyrosine-protein kinase BMX (Homo sapiens) (UniProt P51813); assay: Inhibition of human full length recombinant Bmx at 50 nM by radiometric scintillation counting analysis relative to control
T2 sequence (whole entry): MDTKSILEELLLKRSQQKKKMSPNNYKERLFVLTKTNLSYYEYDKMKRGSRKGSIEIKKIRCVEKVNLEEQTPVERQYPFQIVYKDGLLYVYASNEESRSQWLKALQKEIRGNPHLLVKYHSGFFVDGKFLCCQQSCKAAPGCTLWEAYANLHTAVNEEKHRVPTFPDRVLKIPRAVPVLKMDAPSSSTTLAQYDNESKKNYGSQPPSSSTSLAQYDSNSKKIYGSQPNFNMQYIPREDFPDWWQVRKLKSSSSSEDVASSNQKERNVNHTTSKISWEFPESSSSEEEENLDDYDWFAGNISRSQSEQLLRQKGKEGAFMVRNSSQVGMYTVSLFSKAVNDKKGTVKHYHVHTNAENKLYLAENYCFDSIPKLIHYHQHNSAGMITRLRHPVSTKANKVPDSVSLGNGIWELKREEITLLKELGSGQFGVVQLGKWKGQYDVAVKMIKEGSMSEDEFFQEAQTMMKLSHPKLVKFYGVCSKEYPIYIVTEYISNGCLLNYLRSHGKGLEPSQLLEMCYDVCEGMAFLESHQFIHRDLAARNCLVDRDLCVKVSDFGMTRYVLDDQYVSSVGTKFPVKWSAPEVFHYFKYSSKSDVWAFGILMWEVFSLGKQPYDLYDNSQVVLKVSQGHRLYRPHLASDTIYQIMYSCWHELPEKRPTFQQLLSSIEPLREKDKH

[4] = Therapeutic index, ratio of CC50 for rat RBL2H3 cells to IC50 for Antiallergic activity against anti-DNP-IgE sensitized rat RBL-2H3 cells; type: toxicity; settings: read-out: TI
[5] = molecular target: Tyrosine-protein kinase Lck (Homo sapiens, UniProt P06239); assay: Inhibition of human full length recombinant LCK by radiometric scintillation counting analysis
Sequence of Tyrosine-protein kinase Lck (P06239 whole entry): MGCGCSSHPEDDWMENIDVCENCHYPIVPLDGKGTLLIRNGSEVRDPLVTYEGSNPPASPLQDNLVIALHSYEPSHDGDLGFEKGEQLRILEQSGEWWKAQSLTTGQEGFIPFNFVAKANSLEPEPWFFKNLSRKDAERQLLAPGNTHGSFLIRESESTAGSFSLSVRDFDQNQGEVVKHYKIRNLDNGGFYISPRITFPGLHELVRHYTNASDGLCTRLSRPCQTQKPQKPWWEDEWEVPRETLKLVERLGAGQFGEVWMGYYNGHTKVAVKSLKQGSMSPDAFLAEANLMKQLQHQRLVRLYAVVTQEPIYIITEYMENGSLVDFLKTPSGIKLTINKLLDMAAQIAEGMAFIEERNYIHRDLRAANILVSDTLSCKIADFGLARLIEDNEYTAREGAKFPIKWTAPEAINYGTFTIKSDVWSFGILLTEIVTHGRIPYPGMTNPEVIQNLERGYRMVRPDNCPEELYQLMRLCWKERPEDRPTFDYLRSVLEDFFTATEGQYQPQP

[6] = molecular target: Tyrosine-protein kinase Lyn (Homo sapiens, UniProt P07948); assay: Inhibition of human full length recombinant LYN by radiometric scintillation counting analysis
Sequence of Tyrosine-protein kinase Lyn (P07948 whole entry): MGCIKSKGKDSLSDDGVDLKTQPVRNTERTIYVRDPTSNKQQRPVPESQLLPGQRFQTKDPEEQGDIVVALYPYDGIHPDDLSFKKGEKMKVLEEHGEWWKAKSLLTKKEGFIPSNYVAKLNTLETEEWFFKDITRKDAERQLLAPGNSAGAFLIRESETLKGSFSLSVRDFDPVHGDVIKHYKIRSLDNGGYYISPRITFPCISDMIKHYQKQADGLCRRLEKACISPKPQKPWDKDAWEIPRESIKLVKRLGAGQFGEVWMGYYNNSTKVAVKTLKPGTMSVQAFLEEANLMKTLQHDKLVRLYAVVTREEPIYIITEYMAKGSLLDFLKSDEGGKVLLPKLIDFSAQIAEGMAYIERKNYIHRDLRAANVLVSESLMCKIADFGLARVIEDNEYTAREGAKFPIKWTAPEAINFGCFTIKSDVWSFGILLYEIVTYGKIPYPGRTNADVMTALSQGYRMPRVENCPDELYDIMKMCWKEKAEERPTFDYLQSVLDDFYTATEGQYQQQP

[7] = molecular target: Mast/stem cell growth factor receptor Kit (Homo sapiens) (UniProt P10721); assay: Inhibition of human recombinant c-Kit at 5 nM by radiometric scintillation counting analysis relative to control
Sequence of Mast/stem cell growth factor receptor Kit (Homo sapiens) (P10721 whole entry): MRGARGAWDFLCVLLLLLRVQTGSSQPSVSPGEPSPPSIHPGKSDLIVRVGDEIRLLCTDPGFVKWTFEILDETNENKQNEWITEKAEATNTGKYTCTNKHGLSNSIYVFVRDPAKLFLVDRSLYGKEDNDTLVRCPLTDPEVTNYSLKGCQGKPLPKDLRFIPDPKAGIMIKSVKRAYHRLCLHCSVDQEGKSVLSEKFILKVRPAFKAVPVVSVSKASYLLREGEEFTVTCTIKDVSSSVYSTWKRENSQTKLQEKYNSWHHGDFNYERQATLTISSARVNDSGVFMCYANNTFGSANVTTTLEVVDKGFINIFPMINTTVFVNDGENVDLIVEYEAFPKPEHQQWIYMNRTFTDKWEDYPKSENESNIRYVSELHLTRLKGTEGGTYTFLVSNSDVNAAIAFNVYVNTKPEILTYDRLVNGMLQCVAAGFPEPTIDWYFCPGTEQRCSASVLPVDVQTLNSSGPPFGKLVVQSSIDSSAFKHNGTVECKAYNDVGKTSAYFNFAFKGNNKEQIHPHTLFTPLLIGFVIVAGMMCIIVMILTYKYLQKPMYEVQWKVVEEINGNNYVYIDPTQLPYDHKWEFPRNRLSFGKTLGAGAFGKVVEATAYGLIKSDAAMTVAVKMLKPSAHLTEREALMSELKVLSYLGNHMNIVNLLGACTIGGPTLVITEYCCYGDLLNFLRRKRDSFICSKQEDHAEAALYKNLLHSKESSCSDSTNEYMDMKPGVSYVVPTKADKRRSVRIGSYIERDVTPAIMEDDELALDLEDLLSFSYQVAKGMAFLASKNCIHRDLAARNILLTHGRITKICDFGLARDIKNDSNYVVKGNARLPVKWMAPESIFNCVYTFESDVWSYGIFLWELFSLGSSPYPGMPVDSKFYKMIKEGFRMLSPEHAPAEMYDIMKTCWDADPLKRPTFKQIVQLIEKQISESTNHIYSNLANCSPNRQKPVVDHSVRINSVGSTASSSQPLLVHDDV

[8] = molecular target: Tyrosine-protein kinase Srms (Homo sapiens, UniProt Q9H3Y6); assay: Inhibition of human SRMS by radiometric scintillation counting analysis
Sequence of Tyrosine-protein kinase Srms (Q9H3Y6 whole entry): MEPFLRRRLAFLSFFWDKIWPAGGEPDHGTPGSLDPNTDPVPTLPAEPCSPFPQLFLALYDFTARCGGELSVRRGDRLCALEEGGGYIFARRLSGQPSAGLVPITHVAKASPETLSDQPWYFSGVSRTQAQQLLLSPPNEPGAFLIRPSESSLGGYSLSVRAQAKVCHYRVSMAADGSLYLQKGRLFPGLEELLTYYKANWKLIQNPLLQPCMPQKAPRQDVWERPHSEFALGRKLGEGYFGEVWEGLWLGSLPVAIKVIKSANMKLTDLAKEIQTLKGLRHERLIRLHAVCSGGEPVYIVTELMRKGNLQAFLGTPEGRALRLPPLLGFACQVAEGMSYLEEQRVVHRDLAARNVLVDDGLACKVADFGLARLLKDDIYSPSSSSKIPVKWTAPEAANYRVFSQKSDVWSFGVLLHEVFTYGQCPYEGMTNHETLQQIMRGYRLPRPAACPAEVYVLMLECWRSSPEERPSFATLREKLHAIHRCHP

[9] = molecular target: Tyrosine-protein kinase Fgr (Homo sapiens, UniProt P09769); assay: Inhibition of human recombinant FGR (456 to 770) radiometric scintillation counting analysis
Sequence of Tyrosine-protein kinase Fgr (P09769 whole entry): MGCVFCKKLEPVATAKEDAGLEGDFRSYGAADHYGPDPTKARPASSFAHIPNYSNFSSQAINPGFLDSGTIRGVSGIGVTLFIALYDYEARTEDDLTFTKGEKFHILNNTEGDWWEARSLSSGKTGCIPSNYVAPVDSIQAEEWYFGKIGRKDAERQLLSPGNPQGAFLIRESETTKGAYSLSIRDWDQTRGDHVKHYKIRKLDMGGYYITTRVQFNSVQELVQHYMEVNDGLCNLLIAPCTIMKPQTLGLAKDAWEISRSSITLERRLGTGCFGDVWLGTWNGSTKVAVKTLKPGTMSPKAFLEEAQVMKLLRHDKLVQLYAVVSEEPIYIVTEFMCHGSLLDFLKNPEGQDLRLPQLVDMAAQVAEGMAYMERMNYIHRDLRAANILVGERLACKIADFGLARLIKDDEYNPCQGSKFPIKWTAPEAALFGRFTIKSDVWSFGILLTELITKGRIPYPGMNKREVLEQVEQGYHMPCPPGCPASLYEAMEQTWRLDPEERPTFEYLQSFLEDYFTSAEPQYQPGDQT

[10] = molecular target: Tyrosine-protein kinase Fyn (Homo sapiens, UniProt P06241); assay: Inhibition of human full length recombinant Fyn by radiometric scintillation counting analysis
Sequence of Tyrosine-protein kinase Fyn (P06241 whole entry): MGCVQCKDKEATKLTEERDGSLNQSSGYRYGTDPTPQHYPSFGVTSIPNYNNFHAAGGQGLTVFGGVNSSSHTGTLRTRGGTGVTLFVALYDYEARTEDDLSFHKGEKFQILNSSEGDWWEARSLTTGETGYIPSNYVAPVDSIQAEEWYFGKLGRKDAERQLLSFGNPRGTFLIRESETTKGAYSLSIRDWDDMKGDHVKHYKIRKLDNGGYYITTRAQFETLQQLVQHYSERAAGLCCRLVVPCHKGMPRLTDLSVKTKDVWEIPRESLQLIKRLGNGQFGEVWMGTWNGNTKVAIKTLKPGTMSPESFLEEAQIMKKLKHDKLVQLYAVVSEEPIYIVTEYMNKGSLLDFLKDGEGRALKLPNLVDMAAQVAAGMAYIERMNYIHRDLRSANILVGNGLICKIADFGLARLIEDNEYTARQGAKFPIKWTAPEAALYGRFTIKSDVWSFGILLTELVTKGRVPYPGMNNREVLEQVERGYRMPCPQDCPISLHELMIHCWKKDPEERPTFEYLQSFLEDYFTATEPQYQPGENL

[11] = molecular target: Cytoplasmic tyrosine-protein kinase BMX (Homo sapiens, UniProt P51813); assay: Inhibition of human full length recombinant Bmx by radiometric scintillation counting analysis
[12] = molecular target: T3, Inhibitor of nuclear factor kappa-B kinase subunit alpha (Homo sapiens) (UniProt O15111); assay: Inhibition of human full length recombinant IKKalpha at 50 nM by radiometric scintillation counting analysis relative to control
T3 sequence (whole entry): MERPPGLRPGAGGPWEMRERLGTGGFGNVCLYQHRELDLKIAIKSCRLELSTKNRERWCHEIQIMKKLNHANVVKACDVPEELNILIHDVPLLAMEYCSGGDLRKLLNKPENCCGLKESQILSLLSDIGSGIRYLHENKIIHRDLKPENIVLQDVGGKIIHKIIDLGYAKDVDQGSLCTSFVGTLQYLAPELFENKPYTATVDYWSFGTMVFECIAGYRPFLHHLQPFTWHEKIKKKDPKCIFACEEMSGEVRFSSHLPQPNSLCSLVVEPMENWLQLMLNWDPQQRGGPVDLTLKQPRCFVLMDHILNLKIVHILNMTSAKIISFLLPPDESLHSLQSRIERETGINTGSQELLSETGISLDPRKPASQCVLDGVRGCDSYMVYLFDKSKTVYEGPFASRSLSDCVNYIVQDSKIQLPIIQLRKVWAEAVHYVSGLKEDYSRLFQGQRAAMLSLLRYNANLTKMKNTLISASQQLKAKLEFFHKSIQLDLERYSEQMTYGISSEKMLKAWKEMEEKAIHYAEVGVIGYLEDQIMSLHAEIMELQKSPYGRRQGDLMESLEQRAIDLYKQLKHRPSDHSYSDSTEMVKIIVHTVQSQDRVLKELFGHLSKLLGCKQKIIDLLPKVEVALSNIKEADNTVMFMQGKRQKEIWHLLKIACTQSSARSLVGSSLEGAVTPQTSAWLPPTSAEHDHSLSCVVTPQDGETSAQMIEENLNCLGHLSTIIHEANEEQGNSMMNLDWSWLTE

TXK = TXK (Homo sapiens, UniProt P42681); assay: Inhibition of human recombinant Txk (256 to end) by radiometric scintillation counting analysis
Sequence of TXK (P42681 whole entry, looked up): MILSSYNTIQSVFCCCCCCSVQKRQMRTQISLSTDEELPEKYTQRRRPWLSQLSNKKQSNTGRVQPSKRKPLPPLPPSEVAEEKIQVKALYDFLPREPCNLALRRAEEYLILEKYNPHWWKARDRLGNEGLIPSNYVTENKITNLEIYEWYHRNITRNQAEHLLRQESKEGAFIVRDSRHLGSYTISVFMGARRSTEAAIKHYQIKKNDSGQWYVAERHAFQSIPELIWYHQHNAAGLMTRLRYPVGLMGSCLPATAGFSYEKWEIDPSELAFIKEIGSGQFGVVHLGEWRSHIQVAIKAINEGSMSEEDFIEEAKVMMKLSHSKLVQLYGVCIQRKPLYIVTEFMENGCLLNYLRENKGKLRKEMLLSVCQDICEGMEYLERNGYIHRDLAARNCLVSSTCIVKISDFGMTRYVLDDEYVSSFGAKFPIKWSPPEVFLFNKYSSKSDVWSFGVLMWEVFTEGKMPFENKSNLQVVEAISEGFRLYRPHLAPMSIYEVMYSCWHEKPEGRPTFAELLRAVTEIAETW

[13] = molecular target: RAC-alpha serine/threonine-protein kinase (Homo sapiens) (UniProt P31749); assay: Inhibition of human recombinant PKBalpha at 500 nM radiometric scintillation counting analysis relative to control
Sequence of RAC-alpha serine/threonine-protein kinase (Homo sapiens) (P31749 whole entry): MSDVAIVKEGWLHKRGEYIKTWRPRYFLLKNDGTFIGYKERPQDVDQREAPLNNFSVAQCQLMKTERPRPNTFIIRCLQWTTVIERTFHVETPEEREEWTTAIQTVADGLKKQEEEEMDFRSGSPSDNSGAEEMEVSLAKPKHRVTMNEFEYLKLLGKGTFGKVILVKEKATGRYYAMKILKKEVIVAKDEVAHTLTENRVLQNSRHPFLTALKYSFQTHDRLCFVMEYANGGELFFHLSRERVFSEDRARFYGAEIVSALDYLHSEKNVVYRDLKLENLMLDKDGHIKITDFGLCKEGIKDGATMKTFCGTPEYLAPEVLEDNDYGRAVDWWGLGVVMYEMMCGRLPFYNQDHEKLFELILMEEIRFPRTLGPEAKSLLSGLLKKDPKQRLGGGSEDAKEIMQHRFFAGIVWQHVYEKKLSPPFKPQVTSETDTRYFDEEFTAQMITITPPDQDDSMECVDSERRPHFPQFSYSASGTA

Row | Structure (SMILES) | inhibition [1] | inhibition [2] | inhibition [3] | selectivity ratio [4] | IC50 [5] | IC50 [6] | inhibition [7] | IC50 [8] | IC50 [9] | IC50 [10] | IC50 [11] | inhibition [12] | IC50 (TXK) | inhibition [13]
1 | Cc1ccc(C(=O)Nc2cc(C(F)(F)F)cc(C(F)(F)F)c2)cc1C#Cc1cc(-c2cnn(C)c2)cnc1N | 1% | 10% | 24% | 148 | 0.101 µM | 0.009 µM | 7% | 0.114 µM | 0.041 µM | 0.056 µM | 0.126 µM | 3% | 0.185 µM | 
2 | Cc1ccc(C(=O)Nc2ccc(OC(F)(F)F)cc2)cc1C#Cc1cc(-c2cnn(C)c2)cnc1N |  |  |  | 16.3 |  |  | 13% |  |  |  |  |  |  | -5%
3 | Cc1ccc(C(=O)Nc2ccc(Cl)cc2Cl)cc1C#Cc1cc(-c2cnn(C)c2)cnc1N | -5% | -10% | 23% |  | 0.029 µM | 0.007 µM |  | > 1 µM | > 1 µM | 0.307 µM | > 1 µM | 9% | > 1 µM | 2%
